In the supplement of paper PMC4862054:
Several values for one entry are separate records, joined by “and”; a condition that tells them apart may be missing. Equal values may be shown once.

Experiments:
Conditions in all cases: incubation time: 72 h
[1] = tested on: CAL-51; test: normalised viability (% of control), CellTiter-Blue; higher = more viable cells (about 100 = DMSO control)
Experimental: (§1)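 DSRT, CellTiter-Blue viability, 72 h incubation. Signal is normalised to DMSO and benzethonium chloride controls. Value is the normalised response at dose 7.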

[2] = tested on: DU-4475; test: as above
Experimental: as §1

[3] = tested on: MDA-MB-453; test: as above
Experimental: as §1

[4] = tested on: HDQ-P1; test: as above
Experimental: as §1

[5] = tested on: MDA-MB-468; test: drug sensitivity score (DSS), CellTiter-Glo (DSS (AUC-based score)); higher = stronger drug effect (viability inhibition or cytotoxicity); extreme values may be limits of the assay
Method in brief: (§2)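 A drug sensitivity score was derived from the area under each fitted dose-response curve. Breast cancer cells (20 µl suspension) were seeded onto compound in 384-well plates, using 5 concentrations 10-fold apart over a compound-specific 10,000-fold range, and incubated 72 h. Readouts were CellTox Green fluorescence and then CellTiter-Glo luminescence, with every plate normalised to 0.1 % DMSO and a positive kill control.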

[6] = tested on: MFM-223; test: as above
Method in brief: as §2

[7] = tested on: CAL-85-1; test: as above
Method in brief: as §2

[8] = tested on: HCC1937; test: as above
Method in brief: as §2

[9] = tested on: CAL-51; test: as above
Method in brief: as §2

[10] = tested on: DU-4475; test: as above
Method in brief: as §2

[11] = tested on: CAL-148; test: as above
Method in brief: as §2

[12] = tested on: MDA-MB-436; test: as above
Method in brief: as §2

[13] = tested on: HCC1599; test: as above
Method in brief: as §2

[14] = tested on: MDA-MB-453; test: as above
Method in brief: as §2

[15] = tested on: MCF-10A; test: as above
Method in brief: as §2

[16] = tested on: Hs578T; test: as above
Method in brief: as §2

[17] = tested on: BT-549; test: as above
Method in brief: as §2

[18] = tested on: SK-BR-3; test: as above
Method in brief: as §2

[19] = tested on: CAL-120; test: as above
Method in brief: as §2

[20] = tested on: HDQ-P1; test: as above
Method in brief: as §2

[21] = tested on: BT-474; test: as above
Method in brief: as §2

[22] = tested on: HCC1143; test: as above
Method in brief: as §2

[23] = tested on: MDA-MB-231; test: as above
Method in brief: as §2

[24] = tested on: HCC1599; test: drug sensitivity score (DSS), CellTox Green (DSS (AUC-based score)); higher = stronger drug effect (viability inhibition or cytotoxicity); extreme values may be limits of the assay
Method in brief: as §2

[25] = tested on: BT-474; test: as above
Method in brief: as §2

[26] = tested on: HCC1143; test: as above
Method in brief: as §2

| SMILES | normalised viability ([1]; 1000 nM) | normalised viability ([2]; 1000 nM) | normalised viability ([3]; 1000 nM) | normalised viability ([4]; 1000 nM) | drug sensitivity score [5] | drug sensitivity score [6] | drug sensitivity score [7] | drug sensitivity score [8] | drug sensitivity score [9] | drug sensitivity score [10] | drug sensitivity score [11] | drug sensitivity score [12] | drug sensitivity score [13] | drug sensitivity score [14] | drug sensitivity score [15] | drug sensitivity score [16] | drug sensitivity score [17] | drug sensitivity score [18] | drug sensitivity score [19] | drug sensitivity score [20] | drug sensitivity score [21] | drug sensitivity score [22] | drug sensitivity score [23] | drug sensitivity score [24] | drug sensitivity score [25] | drug sensitivity score [26] | normalised viability ([1]; 100 nM) [%] | normalised viability ([2]; 100 nM) [%] | normalised viability ([3]; 100 nM) [%] | normalised viability ([4]; 100 nM) [%] | normalised viability ([1]; 99 nM) [%] | normalised viability ([2]; 99 nM) [%] | normalised viability ([3]; 99 nM) [%] | normalised viability ([4]; 99 nM) [%] |
| --- | --- | --- | --- | --- | --- | --- | --- | --- | --- | --- | --- | --- | --- | --- | --- | --- | --- | --- | --- | --- | --- | --- | --- | --- | --- | --- | --- | --- | --- | --- | --- | --- | --- | --- |
| C=CC(=O)Nc1cc2c(Nc3ccc(F)c(Cl)c3)ncnc2cc1OCCCN1CCOCC1 [Canertinib] | 101% | 114% | 33.8% | 55.4% | 10.6 | 3.18 | 13.6 | 5.34 | 14.1 | 0.331 | 5.7 | 4.2 | 3.8 | 6.35 | 22 | 2.99 | 7.57 | 20.8 | 3.29 | 11.8 | 6.57 | 3.9 | 8.75 | 0 | 3.65 | 0 | – | – | – | – | – | – | – | – |
| O=C(O)C1(C(=O)O)CCC1.[NH2-].[NH2-].[Pt+2] [Carboplatin] | 99.9% | 97.3% | 99.3% | 97.1% | 0 | 0 | 0 | 0 | 0 | 0 | 0 | 0 | 0 | 0 | 0 | 0 | 0 | 0 | 0 | 0 | 0 | 0 | 0 | 0 | 0 | 0 | – | – | – | – | – | – | – | – |
| COc1cc2c(Oc3ccc4[nH]c(C)cc4c3F)ncnc2cc1OCCCN1CCCC1 [Cediranib] | – | – | – | – | 0 | 1.86 | 0 | 0 | 0 | 0 | 0 | 0 | 0 | 0 | 0 | 0 | 0 | 0 | 0 | 0 | 0 | 0 | 0 | 0 | 0 | 0 | 81.6 | 81.3 | 92 | 95.9 | – | – | – | – |
| Cc1ccc(-c2cc(C(F)(F)F)nn2-c2ccc(S(N)(=O)=O)cc2)cc1 [Celecoxib] | 93.5% | 110% | 103% | 83.2% | 0 | 0 | 0 | 0 | 0 | 0 | 0 | 0 | 0 | 0 | 0 | 0 | 0 | 0 | 0 | 0 | 0 | 0 | 0 | 0 | 0 | 0 | – | – | – | – | – | – | – | – |
| Nc1ncn([C@H]2C[C@H](O)[C@@H](CO)O2)c(=O)n1 [Decitabine] | 107% and 98.7% | 76.6% and 89.9% | 96% and 103% | 87.1% and 88.9% | 19 | 0 | 0 | 1.42 | 3.54 | 0 | 0 | 0 | 0 | 0 | 0 | 0.0828 | 3.92 | 0 | 0.811 | 0.141 | 0.527 | 0 | 0 | 0 | 0 | 0 | – | – | – | – | – | – | – | – |
| Nc1ccccc1NC(=O)c1ccc(CNC(=O)OCc2cccnc2)cc1 [Entinostat] | 105% | 121% | 89.1% | 111% | 4.34 | 3.34 | 1.24 | 0 | 12.8 | 4.63 | 4.83 | 2.51 | 4.34 | 6.08 | 0 | 4.83 | 8.43 | 6.67 | 0 | 2.05 | 2.59 | 3.36 | 2.59 | 0 | 0 | 0 | – | – | – | – | – | – | – | – |
| Nc1nc(F)nc2c1ncn2[C@@H]1O[C@H](CO)[C@@H](O)[C@@H]1O [Fludarabine] | 102% | 99.5% | 108% | 98.4% | 0 | 0 | 0.486 | 0 | 0 | 0 | 0 | 1.1 | 0 | 0 | 0 | 0 | 0.896 | 0 | 0.352 | 0 | 0 | 0 | 0 | 0 | 0 | 0 | – | – | – | – | – | – | – | – |
| O=C(Cc1ccc(-c2ccc(OCCN3CCOCC3)cc2)cn1)NCc1ccccc1 [KX2-391] | 11.1% | 9.93% | 25% | 45.1% | 20 | 15.6 | 18.5 | 8.24 | 25.9 | 15.2 | 16.9 | 21 | 23.8 | 9 | 8.52 | 23.2 | 16.3 | 27.5 | 11 | 8.26 | 12.8 | 14.7 | 14.1 | 3.99 | 3.97 | 0 | – | – | – | – | – | – | – | – |
| N#Cc1ccc(C(c2ccc(C#N)cc2)n2cncn2)cc1 [Letrozole] | 106% | 87.2% | 96.5% | 83.8% | 0 | 0 | 0 | 0 | 0 | 0 | 0 | 0 | 0 | 0 | 0 | 0 | 0 | 0 | 0 | 0 | 0 | 0 | 0 | 0 | 0 | 0 | – | – | – | – | – | – | – | – |
| CCN(CC)CCCC(C)Nc1c2ccc(Cl)cc2nc2ccc(OC)cc12 (configuration not stated) [Mepacrine] | 103% | 84.3% | 101% | 84.9% | 0 | 0 | 0 | 0 | 0 | 0 | 0 | 0 | 0 | 0 | 0 | 0 | 0 | 0 | 0 | 0 | 0 | 0 | 0 | 0 | 0 | 0 | – | – | – | – | 96.2 | 97.3 | 97.2 | 86.9 |
| C[C@H]1C[C@@H]2[C@H]([C@@H](O)C[C@@]3(C)[C@H]2CC[C@]3(O)C(=O)CO)[C@@]2(C)C=CC(=O)C=C12 [Methylprednisolone] | 102% | 104% | 69.3% | 109% | 0 | 0 | 0 | 0 | 0 | 0 | 0 | 0 | 0 | 0 | 0 | 0 | 0 | 0 | 6.14 | 1.31 | 0 | 0 | 0 | 0 | 0 | 0 | – | – | – | – | – | – | – | – |
| O=C(O)C(=O)O.[NH-][C@@H]1CCCC[C@H]1[NH-].[Pt+2] [Oxaliplatin] | 91.1% | 104% | 109% | 97.9% | 0 | 0 | 0 | 0 | 0 | 0 | 0 | 0 | 0 | 0 | 0 | 0 | 0 | 0 | 0 | 0 | 0 | 0 | 0 | 0 | 0 | 0 | – | – | – | – | – | – | – | – |
| Nc1nc2[nH]cc(CCc3ccc(C(=O)N[C@@H](CCC(=O)O)C(=O)O)cc3)c2c(=O)[nH]1 [Pemetrexed] | 102% | 93.9% | 104% | 94.8% | 1.37 | 0 | 13.4 | 8.27 | 13.7 | 0 | 0 | 5.36 | 0 | 0 | 0 | 23.6 | 0 | 11 | 1.52 | 2.5 | 9.78 | 0 | 6.23 | 0 | 0 | 0 | – | – | – | – | – | – | – | – |
